Measured values as given in PubChem BioAssay (NCI).
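Where inhibition never reached the appropriate level, the endpoint shown equals the highest concentration tested. Otherwise, values were interpolated linearly from a five-concentration, 48-hour dose response in 96-well plates. GI50: concentration for 50% inhibition of growth. TGI marks complete inhibition of growth.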 Where a SMILES comes first, the peptide text is derived from it. [ ]: non-standard residue; d: D form. Phe(ol) = N[C@H](CO)Cc1ccccc1; Aib = CC(C)(N)C(=O)O

Columns and labels:
Assay in all cases: inhibition of tumour cell growth, NCI panel, 48 h
NCI-H23 lung = system: NCI-H23 lung
HCC-2998 colon = system: HCC-2998 colon
RPMI-8226 leukemia = system: RPMI-8226 leukemia
A549 NSCLC = system: A549 NSCLC
HCT-116 colon = system: HCT-116 colon
RXF 393 renal = system: RXF 393 renal
ACHN renal = system: ACHN renal
T-47D breast = system: T-47D breast
M14 melanoma = system: M14 melanoma
HS 578T breast = system: HS 578T breast
BT-549 breast = system: BT-549 breast
LOX IMVI melanoma = system: LOX IMVI melanoma
HOP-62 NSCLC = system: HOP-62 NSCLC
OVCAR-4 ovarian = system: OVCAR-4 ovarian
MDA-MB-231 breast = system: MDA-MB-231 breast
NCI-H522 lung = system: NCI-H522 lung
SW-620 colon = system: SW-620 colon
OVCAR-3 ovarian = system: OVCAR-3 ovarian
MCF7 breast = system: MCF7 breast
NCI/ADR-RES ovarian = system: NCI/ADR-RES ovarian
SK-MEL-2 melanoma = system: SK-MEL-2 melanoma
UO-31 renal = system: UO-31 renal
EKVX NSCLC = system: EKVX NSCLC
UACC-257 melanoma = system: UACC-257 melanoma
SF-539 CNS = system: SF-539 CNS
SNB-75 CNS = system: SNB-75 CNS
PC-3 prostate = system: PC-3 prostate
COLO 205 colon = system: COLO 205 colon
SR leukemia = system: SR leukemia
NCI-H226 lung = system: NCI-H226 lung
OVCAR-5 ovarian = system: OVCAR-5 ovarian
HOP-92 NSCLC = system: HOP-92 NSCLC
UACC-62 melanoma = system: UACC-62 melanoma
K-562 leukemia = system: K-562 leukemia
SF-295 CNS = system: SF-295 CNS
SF-268 CNS = system: SF-268 CNS
NCI-H460 lung = system: NCI-H460 lung
IGROV1 ovarian = system: IGROV1 ovarian
786-0 renal = system: 786-0 renal
KM12 colon = system: KM12 colon
HT29 colon = system: HT29 colon
MOLT-4 leukemia = system: MOLT-4 leukemia
MDA-MB-435 = system: MDA-MB-435
TK-10 renal = system: TK-10 renal
MALME-3M melanoma = system: MALME-3M melanoma
U251 CNS = system: U251 CNS
A498 renal = system: A498 renal
SK-MEL-5 melanoma = system: SK-MEL-5 melanoma
SN12C renal = system: SN12C renal
SK-OV-3 ovarian = system: SK-OV-3 ovarian
CCRF-CEM leukemia = system: CCRF-CEM leukemia
SNB-19 CNS = system: SNB-19 CNS
HL-60(TB) leukemia = system: HL-60(TB) leukemia
HCT-15 colon = system: HCT-15 colon
SK-MEL-28 melanoma = system: SK-MEL-28 melanoma
OVCAR-8 ovarian = system: OVCAR-8 ovarian

CC(=O)NC(C)(C)C(=O)N1CCC[C@H]1C(=O)NC(C)(C)C(=O)N[C@@H](C)C(=O)NC(C)(C)C(=O)NC(C)(C)C(=O)N[C@@H](CCC(N)=O)C(=O)NC(C)(C)C(=O)N[C@H](C(=O)NC(C)(C)C(=O)NCC(=O)N[C@@H](CC(C)C)C(=O)NC(C)(C)C(=O)N1CCC[C@H]1C(=O)N[C@H](C(=O)NC(C)(C)C(=O)NC(C)(C)C(=O)N[C@@H](CCC(N)=O)C(=O)N[C@@H](CCC(N)=O)C(=O)N[C@H](CO)Cc1ccccc1)C(C)C)C(C)C (Ac-[Aib]P[Aib]A[Aib][Aib]Q[Aib]V[Aib]GL[Aib]PV[Aib][Aib]QQ[Phe(ol)])
GI50 (NCI-H23 lung): 833 nM | TGI (NCI-H23 lung): > 4.25 µM | GI50 (HCC-2998 colon): 1960 nM | TGI (HCC-2998 colon): > 4.25 µM | GI50 (RPMI-8226 leukemia): 296 nM | TGI (RPMI-8226 leukemia): 2190 nM | GI50 (A549 NSCLC): 1690 nM | TGI (A549 NSCLC): > 4.25 µM | GI50 (HCT-116 colon): 1580 nM | TGI (HCT-116 colon): > 4.25 µM | GI50 (RXF 393 renal): 777 nM | TGI (RXF 393 renal): 2480 nM | GI50 (ACHN renal): > 4.25 µM | TGI (ACHN renal): > 4.25 µM | GI50 (T-47D breast): 1120 nM | TGI (T-47D breast): 3.88 µM | GI50 (M14 melanoma): 3.85 µM | TGI (M14 melanoma): > 4.25 µM | GI50 (HS 578T breast): 1490 nM | TGI (HS 578T breast): > 4.25 µM | GI50 (BT-549 breast): 780 nM | TGI (BT-549 breast): 2660 nM | GI50 (LOX IMVI melanoma): 1570 nM | TGI (LOX IMVI melanoma): > 4.25 µM | GI50 (HOP-62 NSCLC): 3.07 µM | TGI (HOP-62 NSCLC): > 4.25 µM | GI50 (OVCAR-4 ovarian): 1050 nM | TGI (OVCAR-4 ovarian): > 4.25 µM | GI50 (MDA-MB-231 breast): 1290 nM | TGI (MDA-MB-231 breast): > 4.25 µM | GI50 (NCI-H522 lung): 948 nM | TGI (NCI-H522 lung): > 4.25 µM | GI50 (SW-620 colon): 2550 nM | TGI (SW-620 colon): > 4.25 µM | GI50 (OVCAR-3 ovarian): 1290 nM | TGI (OVCAR-3 ovarian): > 4.25 µM | GI50 (MCF7 breast): 206 nM | TGI (MCF7 breast): > 4.25 µM | GI50 (NCI/ADR-RES ovarian): > 4.25 µM | TGI (NCI/ADR-RES ovarian): > 4.25 µM | GI50 (SK-MEL-2 melanoma): 1330 nM | TGI (SK-MEL-2 melanoma): 4.02 µM | GI50 (UO-31 renal): > 4.25 µM | TGI (UO-31 renal): > 4.25 µM | GI50 (EKVX NSCLC): 2510 nM | TGI (EKVX NSCLC): > 4.25 µM | GI50 (UACC-257 melanoma): 1020 nM | TGI (UACC-257 melanoma): 3.43 µM | GI50 (SF-539 CNS): 1340 nM | TGI (SF-539 CNS): > 4.25 µM | GI50 (SNB-75 CNS): 788 nM | TGI (SNB-75 CNS): > 4.25 µM | GI50 (PC-3 prostate): 1340 nM | TGI (PC-3 prostate): > 4.25 µM | GI50 (COLO 205 colon): 831 nM | TGI (COLO 205 colon): 2310 nM | GI50 (SR leukemia): 2200 nM | TGI (SR leukemia): > 4.25 µM | GI50 (NCI-H226 lung): 1320 nM | TGI (NCI-H226 lung): > 4.25 µM | GI50 (OVCAR-5 ovarian): 1730 nM | TGI (OVCAR-5 ovarian): > 4.25 µM | GI50 (HOP-92 NSCLC): 1100 nM | TGI (HOP-92 NSCLC): 3.58 µM | GI50 (UACC-62 melanoma): 1800 nM | TGI (UACC-62 melanoma): > 4.25 µM | GI50 (K-562 leukemia): 1880 nM | TGI (K-562 leukemia): > 4.25 µM | GI50 (SF-295 CNS): 1320 nM | TGI (SF-295 CNS): > 4.25 µM | GI50 (SF-268 CNS): 1730 nM | TGI (SF-268 CNS): > 4.25 µM | GI50 (NCI-H460 lung): 1270 nM | TGI (NCI-H460 lung): > 4.25 µM | GI50 (IGROV1 ovarian): 3.06 µM | TGI (IGROV1 ovarian): > 4.25 µM | GI50 (786-0 renal): > 4.25 µM | TGI (786-0 renal): > 4.25 µM | GI50 (KM12 colon): 1880 nM | TGI (KM12 colon): > 4.25 µM | GI50 (HT29 colon): 1260 nM | TGI (HT29 colon): > 4.25 µM | GI50 (MOLT-4 leukemia): 2800 nM | TGI (MOLT-4 leukemia): > 4.25 µM | GI50 (MDA-MB-435): 1500 nM | TGI (MDA-MB-435): > 4.25 µM | GI50 (TK-10 renal): 3.92 µM | TGI (TK-10 renal): > 4.25 µM | GI50 (MALME-3M melanoma): 1040 nM | TGI (MALME-3M melanoma): 3.43 µM | GI50 (U251 CNS): 1070 nM | TGI (U251 CNS): > 4.25 µM | GI50 (A498 renal): 1640 nM | TGI (A498 renal): > 4.25 µM | GI50 (SK-MEL-5 melanoma): 899 nM | TGI (SK-MEL-5 melanoma): 1960 nM | GI50 (SN12C renal): 931 nM | TGI (SN12C renal): > 4.25 µM | GI50 (SK-OV-3 ovarian): 1280 nM | TGI (SK-OV-3 ovarian): > 4.25 µM | GI50 (CCRF-CEM leukemia): 2110 nM | TGI (CCRF-CEM leukemia): > 4.25 µM | GI50 (SNB-19 CNS): 1160 nM | TGI (SNB-19 CNS): > 4.25 µM | GI50 (HL-60(TB) leukemia): 1740 nM | TGI (HL-60(TB) leukemia): > 4.25 µM | GI50 (HCT-15 colon): > 4.25 µM | TGI (HCT-15 colon): > 4.25 µM | GI50 (SK-MEL-28 melanoma): 1360 nM | TGI (SK-MEL-28 melanoma): > 4.25 µM | GI50 (OVCAR-8 ovarian): 2430 nM | TGI (OVCAR-8 ovarian): > 4.25 µM
